Measured values reported in US7893197B2, “Relaxin-3 chimeric polypeptides and their preparation and use” (Janssen Pharmaceutica N.V., priority 2005, dated 2011).
Ends that are not written are not given here.

Assays:
[1] = system: [125I]-R3/I5 binding sites (GPCR135) in rat brain; assay: Quantitative receptor autoradiography, inhibition of [125I]-R3/I5 binding on rat brain sections; settings: 7 pM [125I]-R3/I5; all regions investigated
Description: (§1) Rats were asphyxiated by carbon dioxide. Brains were immediately removed from the skull and rapidly frozen in dry-ice. Twenty-micron-thick frontal sections were cut using a Cryostat-microtome (Microm HM505E, Mikron, San Diego, Calif.) and thaw-mounted on adhesive microscope slides (Superfrost^+ Plus, VWR). The sections were kept at −70° C. until use. The sectioning protocol for the regional distribution study included series of coronal sections covering the entire brain.
Sections were thawed and dried under a cold air stream and then pre-incubated for 15 min. at room temperature in incubation buffer (20 mM HEPES, pH 7.4, 120 mM NaCl2, 0.22 mM KH2PO4, 1.3 mM CaCl2, 0.8 mM MgSO4) by immersing sections in a 400 ml jar. Sections were dried again under a cold air stream and incubated for 60 min. with 7 pM [^125I]-R3/I5 (specific activity, 2200 Ci/mmole) in incubation buffer containing 0.5% BSA and protease inhibitor cocktail. […] Nonspecific binding was determined in the presence of 100 nM of human R3. After incubation, the excess radioligand was washed off by immersing the slides in the jar containing incubation buffer at 4° C. (3 times 10 min.) followed by a quick immersion in water. Sections were dried and exposed to Fujifilm Imaging plates (BAS-MS 2025) for 48 hrs. […]

GPCR135 = biological target: T1, GPCR135 (Homo sapiens, UniProt Q9NSD7); assay: Binding of radioligands to COS-7 cells transfected with GPCR135
T1 construct: expressed in transfected cells
T1 sequence (Q9NSD7 1-469): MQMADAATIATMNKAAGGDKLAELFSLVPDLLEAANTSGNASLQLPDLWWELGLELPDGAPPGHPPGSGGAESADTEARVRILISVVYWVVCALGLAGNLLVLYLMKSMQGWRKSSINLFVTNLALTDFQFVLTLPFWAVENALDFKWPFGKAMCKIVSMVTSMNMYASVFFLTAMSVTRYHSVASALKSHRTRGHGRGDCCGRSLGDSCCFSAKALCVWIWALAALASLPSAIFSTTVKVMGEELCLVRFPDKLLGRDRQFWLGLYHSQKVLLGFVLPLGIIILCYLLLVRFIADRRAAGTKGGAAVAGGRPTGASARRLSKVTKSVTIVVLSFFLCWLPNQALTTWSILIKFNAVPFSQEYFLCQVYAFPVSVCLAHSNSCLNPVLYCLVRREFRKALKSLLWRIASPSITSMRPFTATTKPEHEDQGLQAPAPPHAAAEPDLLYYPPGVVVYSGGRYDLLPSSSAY
Description: (§2) FIGS. 5A-5D illustrate a comparative analysis of the binding specificities of [^125I]-relaxin-3 and [^125I]-R3/I5 for GPCR135 and LGR7. COS-7 cells in 6-well culture dishes were transfected with human GPCR135 and LGR7, respectively. Mock transfected COS-7 cells were used as the negative controls. [^125I]-relaxin-3 (FIG. 5A) or [^125I]-R3/I5 (FIG. 5B) was added to cells at a final concentration of 100 pM either in the absence or presence of 1 uM of unlabeled relaxin-3 to determine total binding and non-specific binding, respectively. FIG. 5C depicts an autoradiogram of [^125]-relaxin-3 binding in rat brain sagittal section. FIG. 5D depicts an autoradiogram of non-specific binding of [^125]-relaxin-3 as determined in the presence of 100 nM of unlabeled relaxin-3. FIG. 5E depicts an autoradiogram of [^125]-R3/I5 binding in rat brain sagittal section. […] binding of [^125]-R3/I5 as determined in the presence of 100 nM of unlabeled relaxin-3.

LGR7 = biological target: T2, LGR7 (Homo sapiens, UniProt Q9HBX9); assay: Binding of radioligands to COS-7 cells transfected with LGR7; settings: radioligand 100 pM
T2 construct: Human LGR7 cDNA containing the complete coding region was PCR amplified; expressed in transfected cells
T2 sequence (Q9HBX9 1-757): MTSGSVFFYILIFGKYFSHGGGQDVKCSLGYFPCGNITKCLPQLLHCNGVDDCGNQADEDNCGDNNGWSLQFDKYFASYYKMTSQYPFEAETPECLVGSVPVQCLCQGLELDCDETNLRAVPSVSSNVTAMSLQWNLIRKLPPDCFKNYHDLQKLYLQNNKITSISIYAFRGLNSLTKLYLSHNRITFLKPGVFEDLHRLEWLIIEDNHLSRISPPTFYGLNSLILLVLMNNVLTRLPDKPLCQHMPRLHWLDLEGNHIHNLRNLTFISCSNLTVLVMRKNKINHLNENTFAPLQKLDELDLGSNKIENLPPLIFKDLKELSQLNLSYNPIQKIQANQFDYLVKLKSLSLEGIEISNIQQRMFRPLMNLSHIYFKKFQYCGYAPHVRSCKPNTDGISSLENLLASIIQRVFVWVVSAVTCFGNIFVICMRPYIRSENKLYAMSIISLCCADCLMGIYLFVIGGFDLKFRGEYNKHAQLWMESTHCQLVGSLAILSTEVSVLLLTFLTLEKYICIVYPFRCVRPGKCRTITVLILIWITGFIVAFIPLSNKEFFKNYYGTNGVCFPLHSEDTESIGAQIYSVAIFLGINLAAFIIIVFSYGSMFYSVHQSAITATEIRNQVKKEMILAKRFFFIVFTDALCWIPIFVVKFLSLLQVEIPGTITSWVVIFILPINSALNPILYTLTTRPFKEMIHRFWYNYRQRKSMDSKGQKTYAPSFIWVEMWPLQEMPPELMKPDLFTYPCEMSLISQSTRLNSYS
Description: as §2

[2] = system: GPCR135 binding sites in rat brain; assay: Receptor autoradiography, distribution of [125I]R3/I5 binding sites in rat brain; parameters: key: −: not detected; +: low density; ++: moderate density; +++: high density; settings: 7 pM, n = 3
Description: as §1
Sections were thawed and dried under a cold air stream and then pre-incubated for 15 min. at room temperature in incubation buffer (20 mM HEPES, pH 7.4, 120 mM NaCl2, 0.22 mM KH2PO4, 1.3 mM CaCl2, 0.8 mM MgSO4) by immersing sections in a 400 ml jar. Sections were dried again under a cold air stream and incubated for 60 min. with 7 pM [^125I]-R3/I5 (specific activity, 2200 Ci/mmole) in incubation buffer containing 0.5% BSA and protease inhibitor cocktail. […] Nonspecific binding was determined in the presence of 100 nM of human R3. After incubation, the excess radioligand was washed off by immersing the slides in the jar containing incubation buffer at 4° C. (3 times 10 min.) followed by a quick immersion in water. Sections were dried and exposed to Fujifilm Imaging plates (BAS-MS 2025) for 48 hrs. The imaging plates were scanned using the Fuji Bio-Imaging Analyzer System (BAS-5000, Fuji Medical System, CT) and visualized using ImageGauge V3.12 software (Fuji Medical System, CT).
Cresyl-violet staining was performed on adjacent sections and the regions were identified using the rat brain atlas of Paxinos and Watson (Paxinos et al., 1998, The Rat Brain in Stereotaxic Coordinates, New York, Academic Press (publisher)). For illustration purposes, sections were exposed to autoradiography film ((Kodak Omat AR, Rochester N.Y.). After a 4-week exposure, they were automatically developed and fixed in a Konica SRY-101A machine (Konica Medical Corp., Wayne N.J.). Adobe Photoshop 7.0 and Illustrator 9.0 were used for preparation of the figures.

Sequence of GPCR135 binding sites in rat brain (as listed by the source): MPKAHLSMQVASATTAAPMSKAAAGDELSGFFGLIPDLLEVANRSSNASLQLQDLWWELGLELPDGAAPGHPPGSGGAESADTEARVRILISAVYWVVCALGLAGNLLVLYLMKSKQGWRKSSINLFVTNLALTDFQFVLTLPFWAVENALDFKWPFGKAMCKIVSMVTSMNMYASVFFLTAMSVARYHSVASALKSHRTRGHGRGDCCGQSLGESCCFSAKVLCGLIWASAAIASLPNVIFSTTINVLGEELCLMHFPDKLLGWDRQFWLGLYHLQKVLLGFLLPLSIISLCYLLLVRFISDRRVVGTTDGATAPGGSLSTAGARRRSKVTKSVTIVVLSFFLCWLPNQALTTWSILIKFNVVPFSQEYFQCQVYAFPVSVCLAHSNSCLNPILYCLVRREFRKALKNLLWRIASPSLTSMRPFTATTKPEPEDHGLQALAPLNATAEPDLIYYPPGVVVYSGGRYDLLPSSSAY
Sequence of [125I]-R3/I5 binding sites (GPCR135) in rat brain (as listed by the source): as above

Substance: Relaxin: human relaxin (R1) used as competitor in Example 6 (KWKDDVIKLCGRELVRAQIAICGMSTWSRPYVALFEKCCLIGCTKRSLAKYC)
- displacement of [125I]-R3/I5 binding sites, in words [1]: did not displace any significant amount of [^125I]-R3/I5 binding sites at concentrations of up to 100 nM

Substance: [^125I]-R3/I5: radioiodinated R3/I5 chimera used as tracer (RAAPYGVRLCGREFIRAVIFTCGGSRWQDLQTLCCTDGCSMTDLSALC; ends and bridges not checked; also: radioiodinated (125I), site not given here)
- non-specific binding, in words (GPCR135; in presence of 1 uM unlabeled relaxin-3): lower non-specific binding than [^125I]-relaxin-3
- binding to GPCR135 expressing cells, in words (GPCR135; radioligand 100 pM): high affinity
- binding to LGR7, in words (LGR7): did not demonstrate significant binding to LGR7
- [125I]R3/I5 binding sites, density ([2]; Amygdaloid body: Amygdalohippocampal area): +++
- [125I]R3/I5 binding sites, density ([2]; Amygdaloid body: Bed nucleus stria terminalis): ++
- [125I]R3/I5 binding sites, density ([2]; Amygdaloid body: Central nucleus): ++
- [125I]R3/I5 binding sites, density ([2]; Amygdaloid body: Lateral nucleus): ++
- [125I]R3/I5 binding sites, density ([2]; Amygdaloid body: Medial nucleus): ++
- [125I]R3/I5 binding sites, density ([2]; Brain stem: Dorsal raphe, dorsal part): +
- [125I]R3/I5 binding sites, density ([2]; Brain stem: Inferior colliculus): ++
- [125I]R3/I5 binding sites, density ([2]; Brain stem: Interpeduncular nucleus): +++
- [125I]R3/I5 binding sites, density ([2]; Brain stem: Nucleus incertus): ++
- [125I]R3/I5 binding sites, density ([2]; Brain stem: Periaqueductal gray area): ++
- [125I]R3/I5 binding sites, density ([2]; Brain stem: Spinal trigeminal tract): ++
- [125I]R3/I5 binding sites, density ([2]; Brain stem: Superior colliculus): +++
- [125I]R3/I5 binding sites, density ([2]; Cortex: Motor): ++
- [125I]R3/I5 binding sites, density ([2]; Cortex: Piriform): ++
- [125I]R3/I5 binding sites, density ([2]; Cortex: Somatosensory): ++
- [125I]R3/I5 binding sites, density ([2]; Cortex: Temporal): ++
- [125I]R3/I5 binding sites, density ([2]; Cortex: Visual): ++
- [125I]R3/I5 binding sites, density ([2]; Habenula: Medial): ++
- [125I]R3/I5 binding sites, density ([2]; Hippocampal formation: CAB field): +
- [125I]R3/I5 binding sites, density ([2]; Hippocampal formation: Dentate gyrus): +
- [125I]R3/I5 binding sites, density ([2]; Hypothalamus: Lateral nucleus): −
- [125I]R3/I5 binding sites, density ([2]; Hypothalamus: Paraventricular nucleus): ++
- [125I]R3/I5 binding sites, density ([2]; Hypothalamus: Supraoptic nucleus): ++
- [125I]R3/I5 binding sites, density ([2]; Olfactory System: Anterior olfactory nucleus): +++
- [125I]R3/I5 binding sites, density ([2]; Olfactory System: Olfactory bulb): +++
- [125I]R3/I5 binding sites, density ([2]; Septal region: Lateral): +
- [125I]R3/I5 binding sites, density ([2]; Thalamus: Centro lateral): ++
- [125I]R3/I5 binding sites, density ([2]; Thalamus: Centro medial): ++
- [125I]R3/I5 binding sites, density ([2]; Thalamus: Paraventricular): ++
